Results reported in ChEMBL document CHEMBL3745592, “Synthesis of novel coumarin appended bis(formylpyrazole) derivatives: Studies on their antimicrobial and antioxidant activities” (Bioorg Med Chem Lett, 2016).
Converted amounts (≈) assume the structure as drawn.

Tests used:
[1] = Antioxidant activity assessed as DPPH free radical scavenging activity at 25 ug/ml after 20 mins by UV-vis spectrophotometry analysis; type: physicochemical
Candida albicans = experiment: Antifungal activity against Candida albicans assessed as growth inhibition incubated for 72 hrs at 37 degC by broth dilution method; type: functional
Pseudomonas aeruginosa = experiment: Antibacterial activity against Pseudomonas aeruginosa assessed as growth inhibition incubated for 24 hrs at 37 degC by broth dilution method; type: functional
[2] = Antioxidant activity assessed as hydroxyl radical scavenging activity at 100 ug/ml after 60 mins; type: physicochemical; settings: 1 h
[3] = Antioxidant activity assessed as DPPH free radical scavenging activity at 100 ug/ml after 20 mins by UV-vis spectrophotometry analysis; type: physicochemical
Aspergillus flavus = experiment: Antifungal activity against Aspergillus flavus assessed as growth inhibition incubated for 72 hrs at 37 degC by broth dilution method; type: functional
Staphylococcus aureus = experiment: Antibacterial activity against Staphylococcus aureus assessed as growth inhibition incubated for 24 hrs at 37 degC by broth dilution method; type: functional
[4] = Antioxidant activity assessed as DPPH free radical scavenging activity at 50 ug/ml after 20 mins by UV-vis spectrophotometry analysis; type: physicochemical
Aspergillus niger = experiment: Antifungal activity against Aspergillus niger assessed as growth inhibition incubated for 72 hrs at 37 degC by broth dilution method; type: functional
[5] = Antioxidant activity assessed as hydroxyl radical scavenging activity at 75 ug/ml after 60 mins; type: physicochemical; settings: 1 h
Escherichia coli = experiment: Antibacterial activity against Escherichia coli assessed as growth inhibition incubated for 24 hrs at 37 degC by broth dilution method; type: functional
[6] = Antioxidant activity assessed as DPPH free radical scavenging activity at 75 ug/ml after 20 mins by UV-vis spectrophotometry analysis; type: physicochemical

Compound | inhibition (INH) [1] | MIC90 (Candida albicans) | MIC90 (Pseudomonas aeruginosa) | inhibition (INH) [2] | inhibition (INH) [3] | MIC90 (Aspergillus flavus) | MIC90 (Staphylococcus aureus) | inhibition (INH) [4] | MIC90 (Aspergillus niger) | inhibition (INH) [5] | MIC90 (Escherichia coli) | inhibition (INH) [6]
Cc1cc(=O)oc2c(-c3nn(-c4ccccc4)cc3C=O)c(O)c(-c3nn(-c4ccccc4)cc3C=O)cc12 | 15.1% | 50 µg/mL (≈ 96.8 µM) | 50 µg/mL (≈ 96.8 µM) | 30.04% | 23.6% | 75 µg/mL (≈ 145 µM) | 50 µg/mL (≈ 96.8 µM) | 17.34% | 50 µg/mL (≈ 96.8 µM) | 25.9% | 50 µg/mL (≈ 96.8 µM) | 20.08%
COc1ccc(O)c(C(C)(C)C)c1.COc1ccc(O)cc1C(C)(C)C [BUTYLATED HYDROXYANISOLE] |  |  |  | 32.03% |  |  |  |  |  | 25.58% |  | 
COc1ccc(-n2cc(C=O)c(-c3cc4c(C)cc(=O)oc4c(-c4nn(-c5ccc(OC)cc5)cc4C=O)c3O)n2)cc1 | 14.2% | 50 µg/mL (≈ 86.7 µM) | 12.5 µg/mL (≈ 21.7 µM) | 35.13% | 24.59% | 50 µg/mL (≈ 86.7 µM) | 50 µg/mL (≈ 86.7 µM) | 17.87% | 25 µg/mL (≈ 43.4 µM) | 29.4% | 50 µg/mL (≈ 86.7 µM) | 21.14%
C/C(=N\Nc1cccc(C)c1)c1cc2c(C)cc(=O)oc2c(/C(C)=N/Nc2cccc(C)c2)c1O | 10.92% | 50 µg/mL (≈ 107 µM) | 25 µg/mL (≈ 53.4 µM) | 30.78% | 17.29% | 50 µg/mL (≈ 107 µM) | 50 µg/mL (≈ 107 µM) | 11.8% | 75 µg/mL (≈ 160 µM) | 24.22% | 50 µg/mL (≈ 107 µM) | 13.97%

Now from value to compound:

inhibition (INH) [1] | MIC90 (Candida albicans) | MIC90 (Pseudomonas aeruginosa) | inhibition (INH) [2] | inhibition (INH) [3] | MIC90 (Aspergillus flavus) | MIC90 (Staphylococcus aureus) | inhibition (INH) [4] | MIC90 (Aspergillus niger) | inhibition (INH) [5] | MIC90 (Escherichia coli) | inhibition (INH) [6] | Compound
10.73% | 50 µg/mL (≈ 98.2 µM) | 25 µg/mL (≈ 49.1 µM) | 30.75% | 20.62% | 50 µg/mL (≈ 98.2 µM) | 50 µg/mL (≈ 98.2 µM) | 14.75% | 25 µg/mL (≈ 49.1 µM) | 23.49% | 50 µg/mL (≈ 98.2 µM) | 17.41% | C/C(=N\Nc1ccc(Cl)cc1)c1cc2c(C)cc(=O)oc2c(/C(C)=N/Nc2ccc(Cl)cc2)c1O
15.03% | 50 µg/mL (≈ 114 µM) | 25 µg/mL (≈ 56.8 µM) | 29.65% | 22.22% | 50 µg/mL (≈ 114 µM) | 50 µg/mL (≈ 114 µM) | 16.96% | 50 µg/mL (≈ 114 µM) | 24.36% | 25 µg/mL (≈ 56.8 µM) | 19.35% | C/C(=N\Nc1ccccc1)c1cc2c(C)cc(=O)oc2c(/C(C)=N/Nc2ccccc2)c1O
13.24% | 50 µg/mL (≈ 91.8 µM) | 25 µg/mL (≈ 45.9 µM) | 30.1% | 24.02% | 75 µg/mL (≈ 138 µM) | 75 µg/mL (≈ 138 µM) | 16.4% | 75 µg/mL (≈ 138 µM) | 26.49% | 50 µg/mL (≈ 91.8 µM) | 18.78% | Cc1cccc(-n2cc(C=O)c(-c3cc4c(C)cc(=O)oc4c(-c4nn(-c5cccc(C)c5)cc4C=O)c3O)n2)c1
14.57% | 50 µg/mL (≈ 99.9 µM) | 12.5 µg/mL (≈ 25 µM) | 33.01% | 22.4% | 25 µg/mL (≈ 49.9 µM) | 25 µg/mL (≈ 49.9 µM) | 17.17% | 12.5 µg/mL (≈ 25 µM) | 26.36% | 12.5 µg/mL (≈ 25 µM) | 19.7% | COc1ccc(N/N=C(\C)c2cc3c(C)cc(=O)oc3c(/C(C)=N/Nc3ccc(OC)cc3)c2O)cc1
